Where a name gives a salt, the structure may show the parent alone.
assay: in vitro; conditions: rat, gh3-tre-luc cells, AC50 (uM) modified / 1000

Point of comparison: `CN(C)CC[C@@H](c1ccc(Br)cc1)c1ccccn1` [Dexbrompheniramine maleate], CC50 at 24 h 26.6 µM. Against it:
- CC(C(=O)O)c1ccc(N2Cc3ccccc3C2=O)cc1 (stereo not shown) [Indoprofen] — higher, > 50 µM
- C=CCCCCCCCCCCCCCCCC [1-Octadecene] — not separable, > 5 µM
- CO[C@]12CC[C@@]3(C[C@@H]1[C@](C)(O)C(C)(C)C)[C@H]1Cc4ccc(O)c5c4[C@@]3(CCN1CC1CC1)[C@H]2O5 [Buprenorphine hydrochloride] — within 1.5-fold, 23.1 µM
- O=c1oc(=O)c2cc3c(=O)oc(=O)c3cc12 [1H,3H-Benzo(1,2-c:4,5-c')difuran-1,3,5,7-tetrone] — higher, > 90 µM
- S=C=NCCc1ccccc1 [Phenethyl isothiocyanate] — 3-fold higher, 79.7 µM
- CC(C)C(C(=O)OC(C#N)c1cccc(Oc2ccccc2)c1)c1ccc(OC(F)F)cc1 (stereo not shown) [Flucythrinate] — higher, > 90 µM
- N=C(N)NCC1COC2(CCCCC2)O1 (stereo not shown) [Guanadrel sulfate] — not separable, > 20 µM
- S=P(N1CC1)(N1CC1)N1CC1 [Thiotepa] — higher, > 100 µM
- CCCC(=O)OC [Methyl butyrate] — higher, > 90 µM
- O=C(CCl)Nc1ccccc1 [2-Chloro-N-phenylacetamide] — within 1.5-fold, 23.7 µM
- C[C@@H](C1=C(CCN(C)C)Cc2ccccc21)c1ccccn1 [(S)-(+)-Dimethindene maleate] — 1.6-fold higher, 42.1 µM
- O=S(O)CO [Hydroxymethanesulfinic acid monosodium salt dihydrate] — higher, > 50 µM
- CCCCOC(=O)COC(=O)c1ccccc1C(=O)OCCCC [Butylphthalyl butylglycolate] — higher, > 90 µM
- O=C(CO)[C@@H](O)[C@H](O)[C@@H](O)CO [L-(-)-Sorbose] — higher, > 50 µM
- C[C@@H]1CN(CCCn2c3ccccc3c3ccccc32)C[C@H](C)N1 [Rimcazole dihydrochloride] — 3.3-fold lower, 7.99 µM
- CCCCCCCCCCCCCCCC(=O)OCC [Ethyl hexadecanoate] — higher, > 90 µM
- CC(=Cc1ccccc1)[N+](=O)[O-] [(2-Nitro-1-propenyl)benzene] — 2.6-fold lower, 10.3 µM
- Cc1cnc(C)c(C)n1 [2,3,5-Trimethylpyrazine] — higher, > 100 µM
- [H]/N=C(\N/C(=N/[H])Nc1ccc(Cl)cc1)NC(C)C [Proguanil hydrochloride] — not separable, > 20 µM
- CCCOc1ccc(S(=O)(=O)N2CCN(CC)CC2)cc1-c1nc2c(CC)n(Cc3ccccn3)nc2c(=O)[nH]1 [UK-343664] — higher, > 90 µM
- COc1ccc(C[C@@H](C)NC[C@H](O)c2ccc(O)c(NC=O)c2)cc1 [Formoterol hemifumarate] — higher, > 50 µM
- CC(=O)c1ccc2c(c1)N(CCCN(C)C)c1ccccc1S2 [Acetopromazine maleate] — 2.9-fold lower, 9.14 µM
- NCCCN(CCO)CCO [2,2'-[(3-Aminopropyl)imino]diethanol] — higher, > 90 µM
- CCN(CC)CCNC(=O)c1cc(Cl)c(N)cc1OC [Metoclopramide] — higher, > 50 µM
- CCCCCCCCN1CCCC1=O [1-Octyl-2-pyrrolidone] — higher, > 90 µM
- c1ccc2sc(SNC3CCCCC3)nc2c1 [N-Cyclohexyl-2-benzothiazolesulfenamide] — higher, > 90 µM
- CCCCCC(=O)OCCc1ccccc1 [2-Phenylethyl hexanoate] — higher, > 90 µM
- COC(=O)c1ccc(C(=O)OC)c(C(=O)OC)c1 [Trimethyl benzene-1,2,4-tricarboxylate] — higher, > 90 µM
- ClC(Cl)(Br)Br [Dibromodichloromethane] — higher, > 90 µM
- CCCCCCCCCCOS(=O)(=O)O [Sodium decyl sulfate] — higher, > 90 µM

same assay, conditions: rat, gh3-tre-luc cells, AC50 (uM) modified / 1000, Tox21_110001=Tox21_111076; viability, 1 nM T3 present, 24 h

With `Clc1ccc(C(c2ccc(Cl)cc2)C(Cl)(Cl)Cl)cc1` [p,p'-DDT] the CC50 at 24 h was 19.5 µM.

same assay, conditions: rat, gh3-tre-luc cells, AC50 (uM) modified / 1000, Tox21_110001=Tox21_201140; viability, 1 nM T3 present, 24 h

In the case of `ClCCCCl` [1,3-Dichloropropane], the CC50 at 24 h is reported as > 100 µM.

same assay, conditions: rat, gh3-tre-luc cells, AC50 (uM) modified / 1000, Tox21_110001=Tox21_201495; viability, 1 nM T3 present, 24 h

`Clc1ccc(C(c2ccc(Cl)cc2)C(Cl)(Cl)Cl)cc1` [p,p'-DDT] gave a CC50 at 24 h of 44.8 µM.

same assay, conditions: rat, gh3-tre-luc cells, AC50 (uM) modified / 1000, Tox21_110001=Tox21_300067; viability, 1 nM T3 present, 24 h

`Clc1ccc(C(c2ccc(Cl)cc2)C(Cl)(Cl)Cl)cc1` [p,p'-DDT] gave a CC50 at 24 h of 28.7 µM.

same assay, conditions: rat, gh3-tre-luc cells, AC50 (uM) modified / 1000, Tox21_110001=Tox21_300702; viability, 1 nM T3 present, 24 h

For `CCNc1nc(NCC)nc(SC)n1` [Simetryn], the CC50 at 24 h was > 90 µM.

same assay, conditions: rat, gh3-tre-luc cells, AC50 (uM) modified / 1000, Tox21_110001=Tox21_302850; viability, 1 nM T3 present, 24 h

For `CN(N=O)C(N)=O` [N-Nitroso-N-methylurea], the CC50 at 24 h was > 90 µM.

— article PMC6792352, “Limited Chemical Structural Diversity Found to Modulate Thyroid Hormone Receptor in the Tox21 Chemical Library” (Environmental Health Perspectives, 2019)
